{
  "source": "ChEMBL document CHEMBL5154867",
  "about": "“Baylis-Hillman Adducts as a Versatile Module for Constructing Fluorogenic Release System” (J Med Chem, 2022)",
  "key": {"[1]": {"test": "Prodrug activation in PBS at pH 7.4 assessed as GSH-induced NO release by measuring increase in fluorescence at 10 uM in presence of 1 mM GSH", "details": "buffer, pH 7.4, 10 µM"}, "[2]": {"test": "Prodrug activation in PBS at pH 7.4 assessed as GSH-induced NO release by measuring increase in fluorescence at 10 uM incubated for 60 mins in presence of 1 mM GSH by fluorescence based assay", "details": "buffer, pH 7.4, 1 h"}, "[3]": {"test": "Prodrug activation in PBS at pH 7.4 assessed as change in fluorescence signal at 10 uM incubated for 60 mins in presence of 1 mM homocysteine by fluorescence based assay", "details": "buffer, pH 7.4, 1 h"}, "[4]": {"test": "Prodrug activation in PBS at pH 7.4 assessed as change in fluorescence signal at 10 uM incubated for 60 mins in presence of 1 mM cysteine by fluorescence based assay", "details": "buffer, pH 7.4, 1 h"}, "[5]": {"test": "Prodrug activation in PBS assessed as increase in GSH-activated NO release at 10 uM in presence of 1 mM GSH measured for 40 mins by Griess assay", "details": "buffer"}, "[6]": {"test": "Prodrug activation in PBS assessed as amount of GSH-activated NO release at 17 uM in presence of 1 mM GSH by Griess assay", "details": "buffer"}, "[7]": {"test": "Prodrug activation in PBS at pH 6.5 to 9.0 at 10 uM incubated for 60 mins in presence of 1 mM GSH by fluorescence based assay", "details": "buffer, pH 6.5, 1 h"}, "[8]": {"test": "Prodrug activation in PBS at pH 7.4 assessed as decrease in compound at 10 uM incubated upto 60 mins in presence of 1 mM GSH by LC-MS analysis", "details": "buffer, pH 7.4, 1 h"}, "[9]": {"test": "Prodrug activation in PBS at pH 7.4 assessed as GSH bis-adduct at 10 uM incubated upto 60 mins in presence of 1 mM GSH by LC-MS analysis", "details": "buffer, pH 7.4, 1 h"}, "[10]": {"test": "Stability of compound in mouse plasma assessed as prodrug remaining at 100 uM measured upto 12 hrs by HPLC analysis", "format": "ADME, cell-free"}, "[11]": {"test": "Prodrug activation in human HepG2 cells assessed as bis-thiol adduct by measuring green fluorescence at 20 uM treated for 15 mins by fluorescence microscopy", "format": "cell-based", "details": "hepg2, 0.25 h"}, "[12]": {"test": "Prodrug activation in human HepG2 cells assessed as NO release by measuring red fluorescence at 20 uM treated for 15 mins by dRB-OPD staining based fluorescence microscopy", "format": "cell-based", "details": "hepg2, 0.25 h"}, "[13]": {"test": "Prodrug activation in zebrafish assessed as green fluorescence signal at 20 uM incubated for 20 mins by fluorescence microscopy", "design": "species or system Danio rerio"}, "[14]": {"test": "Prodrug activation in zebrafish assessed as NO release by measuring red fluorescence signal at 20 uM incubated for 20 mins by dRB-OPD staining based fluorescence microscopy", "design": "species or system Danio rerio"}, "[15]": {"test": "Drug uptake in zebrafish embryo assessed as penetration depth at 20 uM treated for 20 mins by two-photon based fluorescence microscopy", "format": "ADME, Danio rerio", "details": "in vivo"}, "[16]": {"test": "Drug uptake in mouse brain assessed as penetration depth at 1 mM treated for 2 hrs by two-photon based fluorescence microscopy", "format": "ADME, tissue-based", "details": "in vivo, 1000 µM"}, "[17]": {"system": "BV-2", "test": "Cytotoxicity against mouse BV-2 cells assessed as cell survival upto 2 uM incubated for 24 hrs by MTT assay", "format": "toxicity, cell-based", "details": "bv-2, 24 h"}, "[18]": {"system": "Astrocyte", "test": "Cytotoxicity against astrocyte cells assessed as cell survival upto 2 uM incubated for 24 hrs by MTT assay", "format": "toxicity, cell-based"}, "[19]": {"system": "BV-2", "test": "Cytotoxicity against mouse BV2 cells assessed as cell survival at less than 4 uM incubated for 24 hrs by MTT assay", "format": "toxicity, cell-based", "details": "bv-2, 24 h"}, "[20]": {"system": "BV-2", "test": "Neuroprotective activity against OGD-induced mouse BV2 cells assessed as increase in cell viability at 2 to 4 uM incubated for 4 hrs followed by reoxygenation by MTT assay", "format": "functional, cell-based", "details": "dose 2-4 µM"}, "[21]": {"system": "BV-2", "test": "Neuroprotective activity against OGD-induced mouse BV2 cells assessed as morphological change at 1 to 4 uM incubated for 4 hrs by fluorescence microscopy", "format": "functional, cell-based", "details": "dose 1-4 µM"}, "[22]": {"test": "Prodrug activation in human HepG2 cells assessed as retention time of prodrug by LC-MS analysis", "format": "cell-based"}, "[23]": {"test": "Prodrug activation in human HepG2 cells assessed as retention time of CPT by LC-MS analysis", "format": "cell-based"}, "[24]": {"test": "Prodrug activation in human HepG2 cells assessed as retention time of GSH bis-adduct formation at 10 uM treated for 1 hr in presence of 1 mM GSH by LC-MS analysis", "format": "cell-based", "details": "hepg2, 1 h"}, "[25]": {"test": "Prodrug activation in PBS at pH 7.4 assessed as CPT release at 10 uM in presence of 1 mM GSH measured after 5 mins by LC-MS analysis", "details": "buffer, pH 7.4, 5 min"}, "[26]": {"test": "Prodrug activation in PBS at pH 7.4 assessed as GSH mono-adduct formation at 10 uM in presence of 1 mM GSH measured after 5 mins by LC-MS analysis", "details": "buffer, pH 7.4, 5 min"}, "[27]": {"test": "Prodrug activation in PBS at pH 7.4 assessed as retention time of prodrug at 10 uM in presence of 1 mM GSH by LC-MS analysis", "details": "buffer, pH 7.4, 10 µM"}, "[28]": {"test": "Prodrug activation in PBS at pH 7.4 assessed as retention time of GSH mono-adduct formation at 10 uM in presence of 1 mM GSH by LC-MS analysis", "details": "buffer, pH 7.4, 10 µM"}, "[29]": {"test": "Prodrug activation in PBS at pH 7.4 assessed as retention time of CPT at 10 uM in presence of 1 mM GSH by LC-MS analysis", "details": "buffer, pH 7.4, 10 µM"}, "[30]": {"test": "Prodrug activation in PBS at pH 7.4 assessed as retention time of GSH bis-adduct formation at 10 uM in presence of 1 mM GSH by LC-MS analysis", "details": "buffer, pH 7.4, 10 µM"}, "[31]": {"test": "Prodrug activation in PBS at pH 7.4 assessed as GSH bis-adduct formation at 10 uM in presence of 1 mM GSH measured 10 mins by LC-MS analysis", "details": "buffer, pH 7.4, 10 min"}, "[32]": {"test": "Prodrug activation in PBS at pH 7.4 assessed as rate of CPT release at 10 uM measured within 10 mins by fluorescence microscopy", "details": "buffer, pH 7.4, 10 min"}, "[33]": {"test": "Prodrug activation in PBS at pH 7.4 assessed as CPT release at 10 uM measured within 30 mins by fluorescence microscopy", "details": "buffer, pH 7.4, 0.5 h"}, "[34]": {"test": "Prodrug activation in human HepG2 cells assessed as GSH bis-adduct formation by measuring green fluorescence at 10 uM incubated upto 30 mins by inverted fluorescence microscopy", "format": "cell-based", "details": "hepg2, 0.5 h"}, "[35]": {"test": "Prodrug activation in human HepG2 cells assessed as CPT release by measuring blue fluorescence at 10 uM incubated upto 30 mins by inverted fluorescence microscopy", "format": "cell-based", "details": "hepg2, 0.5 h"}},
  "note": "Calls of active or inactive are those of the source. The calls are words filed in the database; no cut-off is given here.",
  "data": [
    {"smiles": "C=C(CO/N=[N+](/[O-])N1CCCC1)C(=O)c1ccc2cc(N(C)C)ccc2c1", "values": [
      {"measurement": "Activity", "setting": "[1]", "value": "Active"},
      {"measurement": "Activity", "setting": "[2]", "value": "Active"},
      {"measurement": "Activity", "setting": "[3]", "value": "Active"},
      {"measurement": "Activity", "setting": "[4]", "value": "Active"},
      {"measurement": "Activity", "setting": "[5]", "value": "Active"},
      {"measurement": "Activity", "setting": "[6]", "value": 85, "unit": "%"},
      {"measurement": "Activity", "setting": "[7]", "value": "Active"},
      {"measurement": "Activity", "setting": "[8]", "value": "Active"},
      {"measurement": "Activity", "setting": "[9]", "value": "Active"},
      {"measurement": "Stability", "setting": "[10]", "value": "> 60", "unit": "%"},
      {"measurement": "Drug metabolism", "setting": "[11]", "value": "Metabolite_Detected"},
      {"measurement": "Drug metabolism", "setting": "[12]", "value": "Metabolite_Detected"},
      {"measurement": "Drug metabolism", "setting": "[13]", "value": "Metabolite_Detected"},
      {"measurement": "Drug metabolism", "setting": "[14]", "value": "Metabolite_Detected"},
      {"measurement": "Drug metabolism", "setting": "[15]", "value": "Metabolite_Detected"},
      {"measurement": "Drug metabolism", "setting": "[16]", "value": "Metabolite_Detected"},
      {"measurement": "Activity", "setting": "[17]", "value": "Non-Toxic"},
      {"measurement": "Activity", "setting": "[18]", "value": "Non-Toxic"},
      {"measurement": "Activity", "setting": "[19]", "value": "Active"},
      {"measurement": "Activity", "setting": "[20]", "value": "Active"},
      {"measurement": "Activity", "setting": "[21]", "value": "Active"}
    ]},
    {"smiles": "C=C(COC(=O)O[C@]1(CC)C(=O)OCc2c1cc1n(c2=O)Cc2cc3ccccc3nc2-1)C(=O)c1ccc2cc(N(C)C)ccc2c1", "values": [
      {"measurement": "Retention_time", "setting": "[22]", "value": 28.9, "unit": "min"},
      {"measurement": "Retention_time", "setting": "[23]", "value": 10.2, "unit": "min"},
      {"measurement": "Retention_time", "setting": "[24]", "value": 5.1, "unit": "min"},
      {"measurement": "Activity", "setting": "[25]", "value": "Active"},
      {"measurement": "Activity", "setting": "[26]", "value": "Active"},
      {"measurement": "Retention_time", "setting": "[27]", "value": 28.9, "unit": "min"},
      {"measurement": "Retention_time", "setting": "[28]", "value": 13.5, "unit": "min"},
      {"measurement": "Retention_time", "setting": "[29]", "value": 10.2, "unit": "min"},
      {"measurement": "Retention_time", "setting": "[30]", "value": 5.1, "unit": "min"},
      {"measurement": "Activity", "setting": "[31]", "value": "Active"},
      {"measurement": "Activity", "setting": "[32]", "value": "> 90", "unit": "%"},
      {"measurement": "Activity", "setting": "[33]", "value": "Active"},
      {"measurement": "Drug metabolism", "setting": "[34]", "value": "Metabolite_Detected"},
      {"measurement": "Drug metabolism", "setting": "[35]", "value": "Metabolite_Detected"},
      {"measurement": "Stability", "setting": "[10]", "value": "> 60", "unit": "%"}
    ]}
  ]
}
